Experimental data from patent US7202269B2, “GlyT2 modulators” (Janssen Pharmaceutica N.V., priority 2003, dated 2007).

Biological target: T1, human glycine transporter-2 (GlyT2) (Homo sapiens, UniProt Q9Y345)
T1 construct: The entire coding region of the human GlyT2 cDNA was cloned into the mammalian expression vector pClNeo; expressed in transfected cells; host or cells: Cos-7 cells (African green monkey kidney, ATCC), stably transfected, G418-selected; vector pClNeo
T1 sequence (Q9Y345 1-797): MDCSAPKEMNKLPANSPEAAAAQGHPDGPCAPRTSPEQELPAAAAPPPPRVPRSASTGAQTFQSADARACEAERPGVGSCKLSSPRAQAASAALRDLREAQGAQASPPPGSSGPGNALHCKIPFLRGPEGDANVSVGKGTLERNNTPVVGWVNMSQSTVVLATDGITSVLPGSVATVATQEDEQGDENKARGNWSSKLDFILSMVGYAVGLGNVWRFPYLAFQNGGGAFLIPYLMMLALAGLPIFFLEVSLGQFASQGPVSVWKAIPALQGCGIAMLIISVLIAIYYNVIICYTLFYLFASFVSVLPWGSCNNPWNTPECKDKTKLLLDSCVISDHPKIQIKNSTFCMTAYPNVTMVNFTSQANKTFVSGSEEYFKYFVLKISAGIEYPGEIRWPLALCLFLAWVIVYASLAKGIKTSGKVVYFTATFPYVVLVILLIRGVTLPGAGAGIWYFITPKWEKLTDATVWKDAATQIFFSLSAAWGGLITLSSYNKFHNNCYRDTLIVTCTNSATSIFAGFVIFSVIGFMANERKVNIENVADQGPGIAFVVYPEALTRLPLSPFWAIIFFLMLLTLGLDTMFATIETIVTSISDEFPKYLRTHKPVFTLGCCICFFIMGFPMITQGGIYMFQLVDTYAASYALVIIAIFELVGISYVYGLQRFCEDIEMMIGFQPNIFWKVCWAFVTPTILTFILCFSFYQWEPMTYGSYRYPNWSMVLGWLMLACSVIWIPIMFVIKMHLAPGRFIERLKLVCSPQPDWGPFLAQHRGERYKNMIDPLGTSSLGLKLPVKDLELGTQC
Experiment: Inhibition of [14C]-glycine uptake in COS-7 cells transfected with human GlyT2
Assay type: cell-based
Conditions: 2 h at 37° C., Cos-7 cells stably transfected with human GlyT2
Protocol: GlyT2 antagonist activity of representative compounds of the invention was determined in accordance with the assay described in the Examples and by measuring the ability of compounds to inhibit the uptake of [^14C]-glycine in COS-7 cells transfected with the human glycine transporter-2 (GlyT2). The GlyT2 antagonist activities of these representative compounds are set forth hereinafter in Table 1.
Cos-7 cells (African green monkey, kidney) from American Type Culture Collection were grown in DMEM supplemented with 10% fetal bovine serum. The entire coding region of the human GlyT2 cDNA was cloned into the mammalian expression vector pClNeo, and then stably transfected into Cos-7 cells. Transfection was performed essentially as described by T. W. Lovenberg et al. (Mol. Pharmacol. 1999, 55:1101–1107): Briefly, cells were grown to 70–80% confluence, removed from the plate with trypsin, and pelleted in a clinical centrifuge. The pellet was resuspended in 400 μL complete medium and transferred to an electroporation cuvette with a 0.4 cm gap between the electrodes (Bio-Rad, 165–2088). One microgram of supercoiled GlyT2 cDNA was added to the cells, and the suspension was mixed. The voltage for the electroporation was set at 0.25 kV, and the capacitance was set at 960 μF. After electroporation, the cuvette contents were diluted to 10 mL with complete medium, and 0.5 mL, 1.0 mL, 2.0 mL and remainder (˜6.5 mL) portions were plated onto four 10-cm dishes. The cells were incubated 24 h before adding 600 μg/mL G418. Colonies that survived selection were isolated and tested for GlyT2 expression.
The day before the assay, the GlyT2 expressing cells were plated into 96-well scintillating microplates (Amersham, RPNQ 0160) at a density of approximately 20,000 cells per well. Cells were grown overnight at 37° C. in 5% CO2 and then washed once with 37° C. HEPES buffered saline (HBS: 150 mM NaCl, 20 mM HEPES, 1 mM CaCl2, 10 mM glucose, 5 mM KCl, 1 mM MgCl2; pH 7.4). Eighty microliters of 37° C. HBS was subsequently added to each well. Test solutions of GlyT2 inhibitors were prepared in HBS from DMSO stock solutions, and 5 μL of test solution was added to each test well. Total transport and non-specific background were determined by adding 5 μL HBS or 5 μL 2 M glycine, respectively, to the appropriate control wells. Plates were then left at rt for 5 min before the addition of 20 μL of 100 μM ^14C-glycine (NEN, NEC 048H) to each well for a final concentration of 20 μM. Plates were incubated for 2 h at 37° C. with 5% CO2. After 2 h the reaction mixtures were removed by aspiration, and the plates were washed once with ice-cold HBS. Plates were sealed with TopSeal (Packard, 6005185) and counted on a Packard TopCount® scintillation counter.

| IC50 (Table 1, 20 μM) | IC50 (Table 2, 20 μM) | SMILES |
| --- | --- | --- |
| 93 nM | – | N#C/N=C(\Nc1ccc(-c2ccccc2)cc1)N[C@H](CCC(=O)NCCN1CCCC1)Cc1ccccc1 [Example 42, (R)-4-(N′-Biphenyl-4-yl-N″-cyano-guanidino)-5-phenyl-pentanoic Acid (2-pyrrolidin-1-yl-ethyl)-amide] |
| 31 nM | – | N#C/N=C(\Nc1ccc(-c2ccccc2)cc1)N[C@H](CC(=O)NCCN1CCCC1)c1ccccc1 [Example 8, (R)-3-(N′-Biphenyl-4-yl-N″-cyano-guanidino)-3-phenyl-N-(2-pyrrolidin-1-yl-ethyl)-propionamide] |
| – | 95 nM | O=C(C[C@H](Cc1ccccc1)NC(=O)CNc1ccc(Oc2ccc(Cl)cc2)cc1)NCCN1CCCC1 [Example 28, (S)-3-{2-[4-(4-Chloro-phenoxy)-phenylamino]-acetylamino}-4-phenyl-N-(2-pyrrolidin-1-yl-ethyl)-butyramide] |
| – | 998 nM | O=C(Nc1cccc(-c2ccccc2)c1)N[C@@H](Cc1ccccc1)C(=O)NCCCN1CCCC1 [Example 150, (S)-2-(3-Biphenyl-3-yl-ureido)-3-phenyl-N-(3-pyrrolidin-1-yl-propyl)-propionamide] |
| – | 76 nM | CCCNCCNC(=O)CC[C@H](Cc1ccccc1)NC(=O)Nc1ccc(-c2ccccc2)cc1 [Example 87, (R)-4-(3-Biphenyl-4-yl-ureido)-5-phenyl-pentanoic Acid (2-propylamino-ethyl)-amide] |
| – | 405 nM | CC(C)N(CCNC(=O)[C@H](Cc1ccccc1)NC(=O)Nc1ccc(-c2cccs2)cc1)C(C)C [Example 65, (S)-N-(2-Diisopropylamino-ethyl)-3-phenyl-2-[3-(4-thiophen-2-yl-phenyl)-ureido]-propionamide] |
| – | 57 nM | CC(C)NCCNC(=O)CC[C@H](Cc1ccccc1)NC(=O)Nc1ccc(-c2ccccc2)cc1 [Example 26, (R)-4-(3-Biphenyl-4-yl-ureido)-5-phenyl-pentanoic Acid (2-isopropylamino-ethyl)-amide] |
